Calls of active or inactive are those of the source. The calls are words filed in the database; no cut-off is given here.
Key:
[1] = Cytotoxicity against Homo sapiens (human) H8898 cells assessed as reduction in cell viability at 50 umol after 12 hr by MTT assay; assay type: functional
[2] = organism: Homo sapiens; test: Induction of DNA fragmentation in Homo sapiens (human) H8898 cells at 12.5 umol after 24 hr by agarose gel electrophoresis; assay type: functional
[3] = (§1) Cytotoxicity against Homo sapiens (human) H8898 cells assessed as reduction in cell viability after 12 hr by MTT assay; assay type: functional, cell-based
[4] = organism: Homo sapiens; test: as §1; assay type: functional, cell-based
[5] = organism: Homo sapiens; test: Inhibition of clone formation in Homo sapiens (human) H8898 cells after 5 days using trypan blue staining by inverted microscopy; assay type: functional
[6] = organism: Homo sapiens; test: Induction of apoptosis in Homo sapiens (human) H8898 cells at 12.5 to 50 umol after 24 hr by FACS analysis; assay type: functional
[7] = organism: Homo sapiens; test: Cytotoxicity against Homo sapiens (human) H8898 cells assessed as reduction in cell viability at 50 umol up to 5 days by MTT assay; assay type: functional, cell-based
[8] = organism: Homo sapiens; test: Cytotoxicity against Homo sapiens (human) H8898 cells assessed as reduction in cell viability at 50 umol after 2 days by MTT assay; assay type: functional, cell-based
[9] = organism: Homo sapiens; test: Cytotoxicity against Homo sapiens (human) H8898 cells assessed as reduction in cell viability at 50 umol by MTT assay; assay type: functional, cell-based; conditions: TDE = time-dependent effect
[10] = organism: Homo sapiens; test: Induction of oxidative stress in Homo sapiens (human) H8898 cells assessed as increase in intracellular ROS level after 12 hr using CDCFH-DA by spectrophotometry; assay type: functional, cell-based
[11] = organism: Homo sapiens; test: Induction of apoptosis in Homo sapiens (human) H8898 cells assessed as cytoplasm leakage into membrane bound vesicles at 12.5 umol after 12 hr by microscopy; assay type: functional
[12] = organism: Homo sapiens; test: Cytotoxicity against Homo sapiens (human) H8898 cells assessed as reduction in cell viability at 50 umol at 12 hr by MTT assay; assay type: functional, cell-based
[13] = Drug uptake in Homo sapiens (human) H8898 cells after 24 hr by HPLC analysis; assay type: ADME
[14] = Cell cycle arrest in Homo sapiens (human) H8898 cells assessed as reduction in S phase cells at 12 to 50 umol after 24 hr by flow cytometry; assay type: functional, cell-based
[15] = organism: Homo sapiens; test: Induction of DNA fragmentation in Homo sapiens (human) H8898 cells at 50 umol after 24 hr by agarose gel electrophoresis; assay type: functional
[16] = Cell cycle arrest in Homo sapiens (human) H8898 cells assessed as increase in G0-G1 phase cells at 12 to 50 umol after 24 hr by flow cytometry; assay type: functional, cell-based
[17] = Cytotoxicity against Homo sapiens (human) H8898 cells assessed as reduction in cell viability at 25 umol after 12 hr by MTT assay; assay type: functional
[18] = organism: Homo sapiens; test: Antiproliferative activity against Homo sapiens (human) H8898 cells after 5 days using trypan blue staining by hemocytometry; assay type: functional
[19] = organism: Homo sapiens; test: Induction of apoptosis in Homo sapiens (human) H8898 cells assessed as cell compaction at 12.5 umol after 12 hr by microscopy; assay type: functional
[20] = Cytotoxicity against Homo sapiens (human) H8898 cells assessed as reduction in cell viability at 50 umol after 8 to 12 hr by MTT assay; assay type: functional
[21] = Cell cycle arrest in Homo sapiens (human) H8898 cells assessed as retardation at G1/S phase at 12 to 50 umol after 24 hr by flow cytometry; assay type: functional

Compound: CCCCCC1=C/C(=C/c2[nH]c(-c3ccc[nH]3)cc2OC)N=C1C [PRODIGIOSIN]
- Activity [1]: 34%
- Activity [2]: Active
- IC50 [3]: 75 µM
- Activity [4]: Dose-dependent effect
- Activity [5]: Active
- Activity [6]: Active
- Activity [7]: Active
- Activity [8]: Active
- Activity [9]: tde
- Activity [10]: Dose-dependent effect
- Activity [11]: Active
- Activity [12]: Active
- Drug uptake [13]: Dose-dependent effect
- Activity [14]: Active
- Activity [15]: Active
- Activity [16]: Active
- Activity [17]: 5.6%
- Activity [18]: Active
- Activity [19]: Active
- Activity [20]: 28%
- Activity [21]: Active

Source: ChEMBL document CHEMBL3046219, “Inhibitive Effect of Prodigiosin on the Proliferation of Human Malignant Pancreatic Cancer Cells” (Med Chem Res, 2005)
